Laboratory results from PMC10817945, “Design of a novel analogue peptide with potent antibiofilm activities against Staphylococcus aureus based upon a sapecin B-derived peptide” (Scientific Reports, 2024).
Non-standard residues stand in square brackets, D forms with d. Residues, ends and D or L forms follow the SMILES beside them.

Assays:
[1] = test system: S. aureus; experiment: Effect of 1/2× MIC on bacterial growth; type: cell-based, Staphylococcus aureus
Description: To ensure that the antibiofilm property of mKLK is independent of its ability to inhibit bacterial growth, the effect of 1/2× MIC on bacterial growth was examined.

[2] = test system: S. aureus ATCC25923 and MRSA-1 strains; experiment: Catheter-associated biofilm infection mouse model; type: in vivo, Staphylococcus aureus; settings: Balb/c mice, 5 days; for reduction of biofilm formation on catheters (crystal-violet assay): ATCC 25923; for reduction of biofilm on catheters (crystal-violet assay): MRSA
Protocol: All animal experiments were performed in accordance with the protocols approved by the Animal Ethics Committee of Ahvaz Jundishapur University of Medical Sciences (Application No. IR.AJUMS.ABHC.REC.1400.014). Female Balb/c mice (Laboratory Animal Reproduction and Maintenance Center Ahvaz Jundishapur University Ahvaz, Iran) were housed one mouse per cage, under sanitary conditions at 22–25 °C and at 12 h light/dark cycles, with access to sanitized pellet food and water. Prior to each experiment, mice were acclimated to room conditions for 1 week. To increase the experimental accuracy, the cages were disinfected with a povidone-iodine solution of 10%, and the bedding materials were autoclaved, and replaced every day.
In this study, eight groups (five mice per group) of 12-week-old female Balb/c mice were obtained from the Pasture Institute of Iran (Tehran, Iran). Three groups were used to investigate the effect of three concentrations of mKLK against ATCC25923 strain, three groups for three concentrations of mKLK against MRSA, and two groups for control). Mice were anesthetized by injection of ketamine 10% and xylazine 2% (in a ratio of 3 to 1). To create a subcutaneous pocket to place three 1-cm-long polyurethane catheters, a small incision was made. Three catheters were subcutaneously implanted on the lower back of mice. Following implantation of the catheters, injection of bacterial suspension and then mKLK peptide was performed into the subcutaneous pocket. […] In addition, PBS was injected alone into animals as a control group without contamination to evaluate the sterility of the surgical procedure. The incision was closed with Vetbond. Tissue adhesive (Kimiatajhiz teb, Iran) and cleansed with 10% PI solution. After 5 days, all mice were euthanized with CO2, and the catheters were removed. Subsequently, catheter-associated biofilms were evaluated using the CFU counting method, crystal violet assay, and SEM.
The biofilm mass attached to the catheter surface was measured using a colorimetric assay (crystal violet). After removing the catheters from the mouse skin and double washing with PBS, each catheter was placed in wells of a 24-well microtiter plate, and absolute methanol was added to fix the biofilm to the catheter surface. Then, the methanol was discarded and the catheters were dried at room temperature. After staining with crystal violet 0.1% for 5 min at room temperature, the dye was discarded and the catheters were washed with PBS. Then, 33% acetic acid was added to each well to release the absorbed dye. […] To enumerate biofilm cells, catheters were removed, transferred to sterile tubes, vortexed, and sonicated. Bacterial numbers were determined by serial diluting and plating on TSA[56].

`CC(C)C[C@@H](NC(=O)[C@H](N)Cc1c[nH]c2ccccc12)C(=O)N[C@H](Cc1c[nH]c2ccccc12)C(=O)N[C@H](C)C(=O)N[C@H](CC(C)C)C(=O)N[C@H](CC(C)C)C(=O)N[C@H](CCCCN)C(=O)N[C@H](CC(C)C)C(=O)N[C@H](CC(C)C)C(=O)N[C@H](CCCCN)C(=O)N[C@H](CC(C)C)C(=O)N[C@H](CCCCN)C(N)=O` [mKLK] (H-[dW][dL][dW][dA][dL][dL][dK][dL][dL][dK][dL][dK]-NH2; N-terminus assumed) was tested, and the “effect on bacterial growth” value [1] was “did not affect the bacterial growth”, the “reduction of biofilm formation on catheters (crystal-violet assay)” value (“reduction of biofilm formation” for short) ([2]; 1/2× MIC) was 62% and the “reduction of biofilm formation” value ([2]; 1/4×MIC) was 36%. For the same compound, the “reduction of biofilm formation” value ([2]; 1 × MIC) was 72%, the “reduction of biofilm on catheters (crystal-violet assay)” value (shortened to “reduction of biofilm on catheters”) ([2]; 1/2× MIC) was 58% and the “reduction of biofilm on catheters” value ([2]; 1/4× MIC) was 27%. The “reduction of biofilm on catheters” value ([2]; 1× MIC) was 73%.
